Assay results: patent US8969363B2, “Heterocyclic compounds and uses thereof” (Infinity Pharmaceuticals, Inc., priority 2011, dated 2015)
pEC50, pIC50: −log10 of the molar value. Like-named read-outs stand apart in the source and are kept apart here.

Columns and labels:
[1] = target: T1, PI3Kδ (Homo sapiens, UniProt O00329); experiment: PI3 Kinase HTRF assay, PI3Kδ; assay type: biochemical; conditions: 10 μM PIP2, 10 μM ATP, read-out: PI3K δ IC50
T1 construct: purchased Millipore Corporation 14-604-K
From the text: (§1) A PI3-Kinase HTRF® assay kit (cat No. 33-016) purchased from Millipore Corporation was used to screen compounds provided herein. This assay used specific, high affinity binding of the GRP1 pleckstrin homology (PH) domain to PIP3, the product of a Class 1A or 1B PI3 Kinase acting on its physiological substrate PIP2. During the detection phase of the assay, a complex was generated between the GST-tagged PH domain and biotinylated short chain PIP3. The biotinylated PIP3 and the GST-tagged PH domain recruited fluorophores (Streptavidin-Allophycocyanin and Europium-labeled anti-GST respectively) to form the fluorescence resonance energy transfer (FRET) architecture, generating a stable time-resolved FRET signal. The FRET complex was disrupted in a competitive manner by non-biotinylated PIP3, a product formed in the PI3 Kinase assay.
(§2) PI3 Kinase α, β, γ and δ activity was assayed using the PI3 Kinase HTRF® assay kit (catalogue No. 33-016) purchased from Millipore Corporation. Purified recombinant PI3Kα (catalogue No. 14-602-K), PI3Kβ (catalogue No. 14-603-K), PI3Kγ (catalogue No. 14-558-K) and PI3Kδ (catalogue No. 14-604-K) were obtained from Millipore Corporation. Purified recombinant PI3K enzyme was used to catalyze the phosphorylation of phosphatidylinositol 4,5-bisphosphate (PIP2 at 10 μM) to phosphatidylinositol 3,4,5-trisphosphate (PIP3) in the presence of 10 μM ATP. The assay was carried out in 384-well format and detected using a Perkin Elmer EnVision Xcite Multilabel Reader. Emission ratios were converted into percent inhibitions and imported into GraphPad Prism software. The concentration necessary to achieve inhibition of enzyme activity by 50% (IC50) was calculated using concentrations ranging from 20 μM to 0.1 nM (12-point curve). IC50 values were determined using a nonlinear regression model available in GraphPad Prism 5. […]

[2] = test system: Balb/c splenic B cells; experiment: B cell activation and proliferation assay (Alamar Blue); assay type: cell-based; conditions: Mus musculus
Outline: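 Balb/c splenic B cells (Ficoll, then MACS purification; 50,000/well) were preincubated 30 min with compound at 0.2% final DMSO. They were then stimulated 72 h at 37 °C with a cocktail of 10 μg/ml LPS, or 5 μg/ml anti-mouse F(ab′)2 plus 2 ng/ml mouse IL4. Alamar Blue was read after 5 h at 560Ex/590Em, giving IC50 or EC50.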

[3] = test system: phospho-AKT in 786-O cells (PI3Kβ); experiment: PI3Kβ selective cellular assay: phospho-AKT in 786-O cells; assay type: cell-based; conditions: Homo sapiens, 786-0, read-out: IC50 for phospho-AKT, 786-O cell model
From the text: A compound's ability in selectively inhibiting PI3Kβ can be assessed using 786-O cells, i.e., human kidney carcinoma cell line. Briefly, 786-O cells, in which PI3Kβ is constitutively active, can be treated with test compounds. Test compounds' ability to inhibit AKT phosphorylation in 786-O cells, therefore, is indicative of selective inhibition of PI3Kβ. Thus, by monitoring the reduction of phospho-AKT in 786-O cells (using for example, phospho-AKT antibodies), a compound's potential efficacy in selectively inhibiting PI3Kβ can be assessed.
Certain compounds provided herein (e.g., Compounds I-21, I-86, I-87, I-91, and III-13) were tested in 786-O cell model using procedures as described above.

[4] = test system: phospho-AKT in RAW 264.7 cells (PI3Kγ); experiment: PI3Kγ selective cellular assay: phospho-AKT in C5a stimulated RAW 264.7 cells; assay type: cell-based; conditions: Mus musculus, RAW264.7, range with units in value, read-out: IC50 for phospho-AKT, RAW 264.7 cell model
From the text: A compound's ability in selectively inhibiting PI3Kγ can be assessed using RAW264.7 macrophages. Briefly, serum-starved PAW264.7 cells are stimulated with a known GPCR agonist C5a. (See, e.g., Camps et al., Nature Medicine (2005) 11(9): 936-943). Cells can be treated with test compounds prior to, simultaneously with, or subsequent to the stimulation by C5a. RAW 264.7 cells respond to the complement component fragment C5a through activation of the C5a receptor, and the C5a receptor activates macrophages and induces cell migration. Test compounds' ability to inhibit C5a-mediated AKT phosphorylation is indicative of selective inhibition of PI3Kγ. Thus, by monitoring the reduction of phospho-AKT in stimulated RAW 264.7 cells (using for example, phospho-AKT antibodies), a compound's potential efficacy in selectively inhibiting PI3Kγ can be assessed.
Certain compounds provided herein (e.g., Compounds I-21, I-86, I-87, I-91, I-106, and III-13) were tested in RAW 264.7 cell model using procedures as described above.

[5] = target: PI3Kβ; experiment: PI3 Kinase HTRF assay, PI3Kβ; assay type: biochemical, human; conditions: 10 μM PIP2, 10 μM ATP; 'Greater than 10 μM' and 'Greater than 1 μM to 10 μM'; read-out: PI3K β IC50
Outline: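 Recombinant PI3Kβ converting PIP2 (10 μM) to PIP3 with 10 μM ATP; PIP3 detected by competitive HTRF displacement of biotin-PIP3/GST-GRP1 PH domain complex. Emission ratios converted to % inhibition; IC50 by nonlinear regression.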

[6] = test system: phospho-AKT in SKOV-3 cells (PI3Kα); experiment: PI3Kα selective cellular assay: phospho-AKT in SKOV-3 cells; assay type: cell-based; conditions: Homo sapiens, SK-OV-3, read-out: IC50 for phospho-AKT, SKOV-3 cell model
From the text: A compound's ability in selectively inhibiting PI3Kα can be assessed using SKOV-3 cells, i.e., human ovarian carcinoma cell line. Briefly, SKOV-3 cells, in which mutant PI3Kα is constitutively active, can be treated with test compounds. Test compounds' ability to inhibit AKT phosphorylation in SKOV-3 cells, therefore, is indicative of selective inhibition of PI3Kα. Thus, by monitoring the reduction of phospho-AKT in SKOV-3 cells (using for example, phospho-AKT antibodies), a compound's potential efficacy in selectively inhibiting PI3Kα can be assessed.
Certain compounds provided herein (e.g., Compounds I-21, I-86, I-87, I-91, and III-13) were tested in SKOV-3 cell model using procedures as described above.

[7] = test system: phospho-AKT in RAJI cells (PI3Kδ); experiment: PI3Kδ selective cellular assay: phospho-AKT in anti-human IgM stimulated RAJI cells; assay type: cell-based; conditions: read-out: IC50 for phospho-AKT, RAJI cell model
From the text: A compound's ability in selectively inhibiting PI3Kδ can be assessed using RAJI cells, i.e., B lymphocyte cells derived from lymphoma patients. Briefly, serum-starved RAJI cells are stimulated with anti-human IgM, thereby causing signaling through the B-cell receptors, as described in, for example, He et al., Leukemia Research (2009) 33: 798-802. B-cell receptor signaling is important for the activation, differentiation, and survival of B cells and certain B-cell derived cancers. Reduction of phospho-AKT is indicative of compounds that may inhibit B-cell proliferation and function in certain diseases. By monitoring the reduction of phospho-AKT in stimulated RAJI cells (using for example, phospho-AKT antibodies), a compound's potential efficacy in selectively inhibiting PI3Kδ can be assessed.
Certain compounds provided herein (e.g., Compounds I-21, I-86, I-87, I-91, I-106, and III-13) were tested in RAJI cell model using procedures as described above.

[8] = target: T2, PI3Kα (Homo sapiens, UniProt P42336); experiment: PI3 Kinase HTRF assay, PI3Kα; assay type: biochemical; conditions: 10 μM PIP2, 10 μM ATP; 'Greater than 10 μM' and 'Greater than 1 μM to 10 μM'; read-out: PI3K α IC50
T2 construct: purchased Millipore Corporation 14-602-K
From the text: as §1, §2

[9] = target: T3, PI3Kγ (Homo sapiens, UniProt P48736); experiment: PI3 Kinase HTRF assay, PI3Kγ; assay type: biochemical; conditions: 10 μM PIP2, 10 μM ATP; 'Greater than 10 μM' and 'Greater than 1 μM to 10 μM'; read-out: PI3K γ IC50
T3 construct: purchased Millipore Corporation 14-558-K
From the text: as §1, §2

[10] = 'Greater than 10 μM' and 'Greater than 1 μM to 10 μM'
[11] = column 'Greater than 1 μM to 10 μM'

T2 sequence (P42336 whole entry): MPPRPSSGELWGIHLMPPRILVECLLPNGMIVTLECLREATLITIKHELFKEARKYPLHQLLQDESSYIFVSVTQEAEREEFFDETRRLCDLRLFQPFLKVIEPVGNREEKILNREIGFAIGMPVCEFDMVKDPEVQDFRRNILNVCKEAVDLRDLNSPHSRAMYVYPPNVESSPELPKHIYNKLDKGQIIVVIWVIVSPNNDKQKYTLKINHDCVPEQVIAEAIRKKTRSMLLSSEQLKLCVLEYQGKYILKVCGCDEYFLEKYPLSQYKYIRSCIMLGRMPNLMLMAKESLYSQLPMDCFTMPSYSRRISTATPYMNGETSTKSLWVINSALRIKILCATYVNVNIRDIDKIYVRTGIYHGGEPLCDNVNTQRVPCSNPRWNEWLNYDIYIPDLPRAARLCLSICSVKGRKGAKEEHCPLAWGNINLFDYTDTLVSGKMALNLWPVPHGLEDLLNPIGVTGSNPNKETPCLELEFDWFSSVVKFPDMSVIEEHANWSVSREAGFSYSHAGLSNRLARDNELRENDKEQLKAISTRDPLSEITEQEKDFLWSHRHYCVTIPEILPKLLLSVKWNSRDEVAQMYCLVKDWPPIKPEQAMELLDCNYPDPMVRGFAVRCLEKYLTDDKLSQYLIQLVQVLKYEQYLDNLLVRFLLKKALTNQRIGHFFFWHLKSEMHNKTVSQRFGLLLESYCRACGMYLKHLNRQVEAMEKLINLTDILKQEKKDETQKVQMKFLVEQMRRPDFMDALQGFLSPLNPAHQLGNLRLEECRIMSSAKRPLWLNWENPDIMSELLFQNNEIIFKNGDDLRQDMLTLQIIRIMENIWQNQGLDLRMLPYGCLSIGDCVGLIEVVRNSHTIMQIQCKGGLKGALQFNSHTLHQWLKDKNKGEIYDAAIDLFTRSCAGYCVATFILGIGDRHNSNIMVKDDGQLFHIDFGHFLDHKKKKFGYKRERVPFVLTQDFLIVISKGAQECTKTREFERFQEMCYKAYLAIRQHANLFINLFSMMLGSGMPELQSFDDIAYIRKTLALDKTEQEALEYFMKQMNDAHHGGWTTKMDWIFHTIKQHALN
T2 sequence (P27986 whole entry partner): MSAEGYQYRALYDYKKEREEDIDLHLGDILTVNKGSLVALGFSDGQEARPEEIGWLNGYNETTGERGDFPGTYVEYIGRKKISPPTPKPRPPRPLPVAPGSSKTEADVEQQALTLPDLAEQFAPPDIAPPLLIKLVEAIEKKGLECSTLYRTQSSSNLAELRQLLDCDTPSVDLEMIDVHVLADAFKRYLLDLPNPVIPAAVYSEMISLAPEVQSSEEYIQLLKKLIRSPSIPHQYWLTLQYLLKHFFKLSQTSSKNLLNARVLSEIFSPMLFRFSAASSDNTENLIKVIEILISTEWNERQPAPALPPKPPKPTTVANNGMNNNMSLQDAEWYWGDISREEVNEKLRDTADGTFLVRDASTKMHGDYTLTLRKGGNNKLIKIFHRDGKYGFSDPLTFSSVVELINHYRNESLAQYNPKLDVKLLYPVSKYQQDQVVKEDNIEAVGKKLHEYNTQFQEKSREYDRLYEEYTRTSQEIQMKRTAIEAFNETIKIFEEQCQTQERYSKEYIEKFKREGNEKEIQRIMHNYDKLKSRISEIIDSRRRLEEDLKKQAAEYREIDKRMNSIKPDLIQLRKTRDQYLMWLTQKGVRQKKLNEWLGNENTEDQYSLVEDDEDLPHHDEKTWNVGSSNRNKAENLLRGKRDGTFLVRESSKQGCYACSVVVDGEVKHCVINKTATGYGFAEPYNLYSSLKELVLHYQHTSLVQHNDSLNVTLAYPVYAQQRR
Sequence of PI3Kβ (Q8BTI9 whole entry, the tested form may be a part): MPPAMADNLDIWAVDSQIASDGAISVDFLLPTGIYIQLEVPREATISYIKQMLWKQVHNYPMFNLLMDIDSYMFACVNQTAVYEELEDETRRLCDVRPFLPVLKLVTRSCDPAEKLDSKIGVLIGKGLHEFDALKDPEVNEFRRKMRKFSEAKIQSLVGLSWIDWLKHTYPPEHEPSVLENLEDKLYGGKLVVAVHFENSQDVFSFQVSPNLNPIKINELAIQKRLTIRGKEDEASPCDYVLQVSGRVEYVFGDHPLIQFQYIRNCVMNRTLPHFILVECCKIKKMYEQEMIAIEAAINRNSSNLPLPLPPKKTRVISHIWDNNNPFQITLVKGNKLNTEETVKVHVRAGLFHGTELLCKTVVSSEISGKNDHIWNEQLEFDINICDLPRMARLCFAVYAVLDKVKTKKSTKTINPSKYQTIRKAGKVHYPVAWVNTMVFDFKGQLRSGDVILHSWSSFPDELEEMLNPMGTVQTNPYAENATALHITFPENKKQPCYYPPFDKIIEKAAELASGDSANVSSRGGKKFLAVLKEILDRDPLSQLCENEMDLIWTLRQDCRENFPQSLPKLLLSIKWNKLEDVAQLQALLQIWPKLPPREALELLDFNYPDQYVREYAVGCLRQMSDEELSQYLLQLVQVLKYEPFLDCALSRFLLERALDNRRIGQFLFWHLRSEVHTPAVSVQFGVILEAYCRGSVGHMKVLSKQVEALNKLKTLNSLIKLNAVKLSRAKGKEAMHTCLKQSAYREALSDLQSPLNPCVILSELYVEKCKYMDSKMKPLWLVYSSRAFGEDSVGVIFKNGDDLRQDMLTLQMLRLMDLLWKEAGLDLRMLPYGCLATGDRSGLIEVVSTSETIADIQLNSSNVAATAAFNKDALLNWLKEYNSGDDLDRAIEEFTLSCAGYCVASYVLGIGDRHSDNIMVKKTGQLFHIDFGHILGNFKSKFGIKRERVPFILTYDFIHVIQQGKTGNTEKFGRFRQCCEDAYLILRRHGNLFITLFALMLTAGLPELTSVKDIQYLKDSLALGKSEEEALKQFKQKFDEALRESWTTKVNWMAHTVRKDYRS
T3 sequence (P48736 whole entry): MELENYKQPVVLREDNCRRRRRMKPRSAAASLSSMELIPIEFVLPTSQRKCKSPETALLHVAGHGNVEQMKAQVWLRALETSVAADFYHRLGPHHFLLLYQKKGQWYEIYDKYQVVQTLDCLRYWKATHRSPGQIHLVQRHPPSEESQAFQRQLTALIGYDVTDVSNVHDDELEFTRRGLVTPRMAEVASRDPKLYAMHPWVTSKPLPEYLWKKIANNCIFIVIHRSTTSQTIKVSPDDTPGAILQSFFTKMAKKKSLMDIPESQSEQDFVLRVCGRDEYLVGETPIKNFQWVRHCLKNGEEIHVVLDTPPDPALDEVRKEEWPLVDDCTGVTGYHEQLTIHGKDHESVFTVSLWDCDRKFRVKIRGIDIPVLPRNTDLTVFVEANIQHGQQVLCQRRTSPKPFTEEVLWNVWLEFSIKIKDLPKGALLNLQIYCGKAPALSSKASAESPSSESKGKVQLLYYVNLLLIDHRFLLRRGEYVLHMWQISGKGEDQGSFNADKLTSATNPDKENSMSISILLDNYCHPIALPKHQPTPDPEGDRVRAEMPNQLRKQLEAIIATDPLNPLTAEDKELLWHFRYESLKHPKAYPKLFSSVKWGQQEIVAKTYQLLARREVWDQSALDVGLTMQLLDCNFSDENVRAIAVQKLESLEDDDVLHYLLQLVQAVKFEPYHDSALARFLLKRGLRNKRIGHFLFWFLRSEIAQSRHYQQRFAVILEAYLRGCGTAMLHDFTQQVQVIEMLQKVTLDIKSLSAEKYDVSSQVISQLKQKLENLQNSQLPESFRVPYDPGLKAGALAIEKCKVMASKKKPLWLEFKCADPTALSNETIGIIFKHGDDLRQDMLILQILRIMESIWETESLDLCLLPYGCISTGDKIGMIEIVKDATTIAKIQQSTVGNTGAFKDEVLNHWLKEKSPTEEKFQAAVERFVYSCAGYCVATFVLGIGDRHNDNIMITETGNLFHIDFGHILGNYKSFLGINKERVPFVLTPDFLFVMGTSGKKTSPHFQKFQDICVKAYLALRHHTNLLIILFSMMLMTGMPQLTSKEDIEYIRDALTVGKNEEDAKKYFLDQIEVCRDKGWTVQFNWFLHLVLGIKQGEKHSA
T1 sequence (O00329 whole entry): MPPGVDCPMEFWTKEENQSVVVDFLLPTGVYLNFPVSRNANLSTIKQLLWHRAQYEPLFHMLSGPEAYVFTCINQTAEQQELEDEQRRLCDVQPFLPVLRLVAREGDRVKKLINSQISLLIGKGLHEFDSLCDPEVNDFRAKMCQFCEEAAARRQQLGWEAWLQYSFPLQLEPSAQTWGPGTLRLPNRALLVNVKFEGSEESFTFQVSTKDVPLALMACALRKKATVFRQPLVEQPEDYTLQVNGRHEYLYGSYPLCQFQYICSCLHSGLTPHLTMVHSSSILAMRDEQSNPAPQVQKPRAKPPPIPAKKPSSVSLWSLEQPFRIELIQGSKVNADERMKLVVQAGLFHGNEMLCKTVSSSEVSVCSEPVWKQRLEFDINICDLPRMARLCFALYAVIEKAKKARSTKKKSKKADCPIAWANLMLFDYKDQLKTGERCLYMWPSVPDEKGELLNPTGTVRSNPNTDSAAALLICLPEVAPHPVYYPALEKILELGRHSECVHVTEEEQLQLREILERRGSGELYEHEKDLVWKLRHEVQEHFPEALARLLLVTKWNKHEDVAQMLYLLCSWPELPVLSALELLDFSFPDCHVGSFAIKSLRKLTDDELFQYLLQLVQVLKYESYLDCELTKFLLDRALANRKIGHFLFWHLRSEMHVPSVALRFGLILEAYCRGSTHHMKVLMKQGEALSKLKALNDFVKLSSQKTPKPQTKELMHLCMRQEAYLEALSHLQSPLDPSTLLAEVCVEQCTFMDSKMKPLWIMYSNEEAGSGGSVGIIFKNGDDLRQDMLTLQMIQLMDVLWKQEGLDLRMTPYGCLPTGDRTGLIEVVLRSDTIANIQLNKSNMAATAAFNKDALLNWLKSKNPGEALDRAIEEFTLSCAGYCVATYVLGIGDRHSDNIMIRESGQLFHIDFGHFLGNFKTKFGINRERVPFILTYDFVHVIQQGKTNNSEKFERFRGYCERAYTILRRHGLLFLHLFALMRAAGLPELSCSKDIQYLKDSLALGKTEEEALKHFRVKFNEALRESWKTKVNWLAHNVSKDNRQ
T1 sequence (P27986 whole entry partner): as the sequence (P27986 whole entry partner) above

Row | Compound | pIC50 [5] | pIC50 [1, 10] | pIC50 [9] | also measured
1 | C[C@H](Nc1ncnc2cccnc12)c1cc2c(F)ccc(Cl)c2c(=O)n1-c1ccccc1 [Compound I-14] |  |  |  | pIC50 ([1]; 'Less than 100 nM'): > 7.00; pEC50 ([2]; 'Less than 100 nM'): > 7.00
2 | C[C@H](Nc1ncnc2cccnc12)c1cc2cccc(-c3cnn(C)c3)c2c(=O)n1-c1ccccc1 [Compound I-21] | < 5.00 |  |  | pIC50 [3]: 5.00 to 6.00; pIC50 [4]: 6.00 to 7.00; pIC50 [6]: 5.00 to 6.00; pEC50 ([2]; 'Less than 100 nM'): > 7.00; pIC50 [7]: > 7.00; pIC50 [8]: 5.00 to 6.00
3 | C[C@H](Nc1ncnc2cccnc12)c1cc2scc(-c3cnn(C)c3)c2c(=O)n1-c1ccccc1 [Compound I-30] | < 5.00 | 5.00 to 6.00 |  | 
4 | C[C@H](Nc1ncnc2cccnc12)c1cc2cccc(-c3cnn(C)c3)c2c(=O)n1C [Compound I-46] | < 5.00 | 5.00 to 6.00 | 5.00 to 6.00 | 
5 | C[C@H](Nc1nc(Cl)nc2cccnc12)c1cc2cccc(Cl)c2c(=O)n1-c1ccccc1 [Compound I-52] | < 5.00 | 5.00 to 6.00 |  | pEC50 ([2]; 1 μM to 100 nM): 6.00 to 7.00
6 | Cc1ccnc2cc(C(C)Nc3ncnc4cccnc34)[nH]c(=O)c12 (stereo not drawn) [Compound I-68, 4-methyl-7-(1-(pyrido[3,2-d]pyrimidin-4-ylamino)ethyl)-1,6-naphthyridin-5(6H)-one] | < 5.00 | 5.00 to 6.00 |  | 
7 | COc1ncc(-c2cccc3cc([C@H](C)Nc4cc(O)nc5cccnc45)n(-c4ccccc4)c(=O)c23)cn1 [Compound I-99] | < 5.00 | 5.00 to 6.00 |  | pEC50 [2, 11]: 5.00 to 6.00
8 | C[C@H](Nc1cc(O)nc2cccnc12)c1cc2cccc(Cl)c2c(=O)n1-c1ccccc1 [Compound I-100] | < 5.00 | 5.00 to 6.00 | 5.00 to 6.00 | pEC50 [2, 11]: 5.00 to 6.00
9 | C[C@H](Nc1nc(N)nc2cccnc12)c1cc2cccc(N(C)C)c2c(=O)n1-c1ccccc1 [Compound I-102] | < 5.00 | 5.00 to 6.00 |  | 
10 | CC(C)n1c([C@H](C)Nc2ncnc3cccnc23)cc2cccc(-c3ccc(=O)n(C)c3)c2c1=O [Compound I-106] | 5.00 to 6.00 |  | 5.00 to 6.00 | pIC50 [4]: 6.00 to 7.00; pIC50 [7]: > 7.00; pIC50 [8]: 5.00 to 6.00
11 | C[C@H](Nc1cc(Cl)nn2ccnc12)c1cc2cccc(-c3cnn(C)c3)c2c(=O)n1C1CC1 [II-13] | < 5.00 | 5.00 to 6.00 | 5.00 to 6.00 | 
12 | C[C@H](Nc1ccnc2ccnn12)c1cc2cccc(Cl)c2c(=O)n1CCN1CCCC1 [II-28] | 5.00 to 6.00 | 5.00 to 6.00 |  | 
13 | C[C@H](Nc1ccnn2ccnc12)c1cc2cccc(Cl)c2c(=O)n1CCN1CCCC1 [II-29] | 5.00 to 6.00 | 5.00 to 6.00 |  | 
14 | Cc1cn2nccc(N[C@@H](C)c3cc4cccc(Cl)c4c(=O)n3-c3cccc(F)c3)c2n1 [II-31] | < 5.00 | 5.00 to 6.00 | 5.00 to 6.00 | 
15 | Cc1cn2nccc(N[C@@H](C)c3cc4cccc(Cl)c4c(=O)n3-c3ccccc3)c2n1 [II-32] | < 5.00 | 5.00 to 6.00 | 5.00 to 6.00 | 
16 | Cc1cn2nccc(N[C@@H](C)c3cc4cccc(-c5cnn(C)c5)c4c(=O)n3-c3ccccc3)c2n1 [II-33] | < 5.00 | 5.00 to 6.00 | 5.00 to 6.00 | 
17 | C[C@H](Nc1nc(Cl)nc2cccnc12)c1cc2cccc(C(F)(F)F)c2c(=O)n1-c1ccccc1 [III-22] | < 5.00 | 5.00 to 6.00 |  | 
18 | C[C@H](Nc1ncnn2cncc12)c1cc2cccc(C(F)(F)F)c2c(=O)n1-c1ccccc1 [III-28] | < 5.00 | 5.00 to 6.00 |  | 
19 | C[C@@H](Nc1ncnc2cc(F)ccc12)c1cc2cccc(Cl)c2c(=O)n1-c1ccccc1 [IV-1] | < 5.00 | < 5.00 | < 5.00 | pIC50 [8]: < 5.00
20 | C[C@@H](Nc1ncnc2cc(F)c(F)cc12)c1cc2cccc(Cl)c2c(=O)n1-c1ccccc1 [IV-3] | < 5.00 | < 5.00 | < 5.00 | pIC50 [8]: < 5.00
21 | C[C@H](Nc1ncc2[nH]cnc2n1)c1cc2cccc(Cl)c2c(=O)n1-c1ccccc1 [IV-7] | < 5.00 | 5.00 to 6.00 |  | 
22 | C[C@H](NCc1cnc2cccnn12)c1cc2cccc(Cl)c2c(=O)n1-c1ccccc1 [IV-9, (S)-8-chloro-3-(1-(imidazo[1,2-b]pyridazin-3-ylmethylamino)ethyl)-2-phenylisoquinolin-1(2H)-one] | < 5.00 | 5.00 to 6.00 |  | 
23 | C[C@H](Nc1ncnn2cncc12)c1cc2cccc(Cl)c2c(=O)n1-c1cccc(F)c1 [IV-14] | < 5.00 | 5.00 to 6.00 |  | 
24 | C[C@H](Nc1nc(Cl)nc2nc(Cl)cnc12)c1cc2cccc(Cl)c2c(=O)n1-c1ccccc1 [IV-19] | < 5.00 | 5.00 to 6.00 |  | 
25 | C[C@H](Nc1nc(Cl)nc2nccnc12)c1cc2cccc(Cl)c2c(=O)n1-c1ccccc1 [IV-20] | < 5.00 | 5.00 to 6.00 | 5.00 to 6.00 | 
